Several values for one entry are separate records, joined by “and”; a condition that tells them apart may be missing. Identical values can stand only once. Like-named read-outs stand apart in the source and are kept apart here.
Experiments:
[1] = log P determination by LC-MS in the acidic range; format: physicochemical; conditions: for log P (acid): LC-MS in the acidic range
Text: The LC-MS determination in the acidic range is effected at pH 2.7 using 0.1% aqueous formic acid and acetonitrile (contains 0.1% formic acid) as eluents, linear gradient from 10% acetonitrile to 95% acetonitrile. Alternatively, the determination is effected in the acidic range at pH 2.3 using 0.1% aqueous phosphoric acid and acetonitrile as eluents; linear gradient from 10% acetonitrile to 95% acetonitrile.

Myzus persicae [2] = test: Myzus persicae - sachet test; format: in vivo; conditions: 100% = all animals killed
Method in brief: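 Active ingredient dissolved with 2% N-methylpyrrolidone and 2% diacetone alcohol, diluted in water, then pipetted into nutrient medium. Plate sealed and paired with a plate carrying green peach aphids. Kill in % scored after the set time (100% = all dead, 0% = none dead).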

Myzus persicae [3] = test: Myzus persicae - spray test; format: in vivo; conditions: application rate of 500 g/ha, after 6 days, sprayed Chinese cabbage leaf discs infested by all stages, 100% = all aphids killed
Method in brief: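 Chinese cabbage leaf discs infested with all stages of green peach aphid sprayed with compound in acetone/DMF formulation with alkylaryl polyglycol ether emulsifier, diluted in emulsifier-containing water. Efficacy (% aphids killed) assessed after 6 days.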

[4] = application rate of 6 ppm in nutrient medium
[5] = application rate of 30 ppm in nutrient medium

Structure (SMILES)	log P (acid) [1]	chromatographic logP ([1]; pH 2.7, LC-MS in the acidic range, read-out: log P (acid))	chromatographic logP ([1]; pH 2.7, values given in the synthesis examples and NMR lists, read-out: HPLC-MS: log P)	efficacy (kill in %) (Myzus persicae [2]; [4])	efficacy (kill in %) (Myzus persicae [2]; [5])	efficacy in % (Myzus persicae [3])	pest or weed control at 6 ppm (Myzus persicae [2]; Myzus persicae, application rate of 6 ppm in nutrient medium, read-out: efficacy (kill in %))	pest or weed control at 30 ppm (Myzus persicae [2]; Myzus persicae, application rate of 30 ppm in nutrient medium, read-out: efficacy (kill in %))	pest or weed control at 500 g/ha (Myzus persicae [3]; Myzus persicae, foliar, 144 h, read-out: efficacy in %)
Cc1cc(NC(=O)c2cccnc2)nn1CCC(F)(F)F [Compound I-1-188]	1.45	–	–	100%	100%	90%	–	–	–
C#CCn1ccc(NC(=O)c2cccnc2)n1 [Compound I-1-54]	0.69	–	–	100%	100%	90%	–	–	–
O=C(Nc1cc(Br)n(Cc2ncccn2)n1)c1cccnc1 [Compound I-1-140, N-[5-Bromo-1-(pyrimidin-2-ylmethyl)-1H-pyrazol-3-yl]nicotinamide]	–	1.1	1.1	–	–	–	100%	100%	90%
O=C(Nc1cc(C(F)(F)F)n(Cc2ncccn2)n1)c1cccnc1 [Compound I-1-196]	1.46	–	–	100%	100%	90%	–	–	–
O=C(Nc1ccn(Cc2ccc(Cl)nc2)n1)c1cccnc1 [Compound I-1-27]	1.22	–	–	100%	100%	90%	–	–	–
Cc1cc(NC(=O)c2cccnc2)nn1Cn1nc(C2CC2)n(C2CC2)c1=O [Compound I-1-147]	1.45	–	–	100%	100%	100%	–	–	–
Cc1cc(NC(=O)c2cccnc2)nn1C(=O)Oc1ccccc1 [Compound I-1-233]	2	–	–	100%	100%	90%	–	–	–
Cc1cc(NC(=O)c2cccnc2)nn1CC1CC1(Cl)Cl (stereo not shown) [Compound I-1-237]	1.84	–	–	100%	100%	90%	–	–	–
Cc1cc(NC(=O)c2cccnc2)nn1Cc1ccccc1 [Compound I-1-46]	1.79	–	–	100%	100%	100% and 90%	–	–	–
CCC(=O)n1nc(NC(=O)c2cccnc2)cc1C [Compound I-1-129]	1.56	–	–	100%	100%	90%	–	–	–
Cc1cc(NC(=O)c2cccnc2)nn1Cc1cc(C(=O)O)n(-c2ncccc2Cl)n1 [Compound I-1-156]	1.18	–	–	100%	100%	90%	–	–	–
Cc1cc(NC(=O)c2cccnc2)nn1C(=O)c1ncccn1 [Compound I-1-345]	1.11	–	–	100%	100%	90%	–	–	–
Cc1cc(NC(=O)c2cccnc2)nn1CCS(C)(=O)=O [Compound I-1-182]	0.49	–	–	100%	100%	100%	–	–	–
CNC(=O)n1nc(NC(=O)c2cccnc2)cc1C [Compound I-1-292]	0.97	–	–	100%	100%	100%	–	–	–
Cc1cc(NC(=O)c2cccnc2)nn1Cc1cccc(F)c1 [Compound I-1-60]	1.9	–	–	100%	100%	100%	–	–	–
Cc1cc(NC(=O)c2cccnc2)nn1C(=O)NC1CC1 [Compound I-1-312]	1.27	–	–	100%	100%	90%	–	–	–
Cc1cc(NC(=O)c2cccnc2)nn1CC1CCCO1 (stereo not shown) [Compound I-1-176]	1.06	–	–	80%	80%	100%	–	–	–
Cc1cc(C)nc(CNC(=O)n2nc(NC(=O)c3cccnc3)cc2C)n1 [Compound I-1-338]	1.43	–	–	100%	100%	90%	–	–	–
Cc1cc(NC(=O)c2cccnc2)nn1Cc1ncnn1-c1ccccc1 [Compound I-1-304]	1.32	–	–	100%	100%	100%	–	–	–
CSCCNC(=O)n1nc(NC(=O)c2cccnc2)cc1C [Compound I-1-167]	1.55	–	–	100%	100%	90%	–	–	–
O=C(Nc1ccn(-c2ncccc2F)n1)c1cccnc1 [Compound I-1-30]	1.15	–	–	100%	100%	90%	–	–	–

Continued, in another order:

log P (acid) [1]	chromatographic logP ([1]; pH 2.7, LC-MS in the acidic range, read-out: log P (acid))	chromatographic logP ([1]; pH 2.7, values given in the synthesis examples and NMR lists, read-out: HPLC-MS: log P)	Structure (SMILES)	efficacy (kill in %) (Myzus persicae [2]; [4])	efficacy (kill in %) (Myzus persicae [2]; [5])	efficacy in % (Myzus persicae [3])	pest or weed control at 6 ppm (Myzus persicae [2]; Myzus persicae, application rate of 6 ppm in nutrient medium, read-out: efficacy (kill in %))	pest or weed control at 30 ppm (Myzus persicae [2]; Myzus persicae, application rate of 30 ppm in nutrient medium, read-out: efficacy (kill in %))	pest or weed control at 500 g/ha (Myzus persicae [3]; Myzus persicae, foliar, 144 h, read-out: efficacy in %)
0.88	–	–	Cc1cc(NC(=O)c2cccnc2)nn1Cc1ccccn1 [Compound I-1-6]	100%	100%	90%	–	–	–
1.44	–	–	Cc1cc(NC(=O)c2cccnc2)nn1Cc1nnc(C(C)(C)C)o1 [Compound I-1-281]	80%	100%	90%	–	–	–
1.71	–	–	Cc1cc(NC(=O)c2cccnc2)nn1Cc1noc(C(C)(C)C)n1 [Compound I-1-285]	100%	100%	90%	–	–	–
0.72	–	–	COC(=O)C(C)(C)NC(=O)Cn1nc(NC(=O)c2cccnc2)cc1C [Compound I-1-32]	100%	100%	90%	–	–	–
1.09	–	–	Cc1cc(NC(=O)c2cccnc2)nn1Cc1cc(C(=O)N(C)C)no1 [Compound I-1-298]	100%	100%	90%	–	–	–
0.12	–	–	Cc1cc(NC(=O)c2cccnc2)nn1Cc1cccnc1 [Compound I-1-15]	100%	100%	90%	–	–	–
1.16	–	–	Cc1ccn(Cn2nc(NC(=O)c3cccnc3)cc2C)n1 [Compound I-1-192]	100%	100%	100%	–	–	–
1.31	–	–	Cc1cc(NC(=O)c2cccnc2)nn1CC1CC1 [Compound I-1-174]	100%	100%	100%	–	–	–
1.75	–	–	CC(C)=CCn1nc(NC(=O)c2cccnc2)cc1C [Compound I-1-239]	100%	100%	90%	–	–	–
0.62	–	–	Cc1cc(NC(=O)c2cccnc2)nn1Cc1nn(C)c(=O)n1C [Compound I-1-153]	100%	100%	100%	–	–	–
1.03	–	–	Cc1cc(NC(=O)c2cccnc2)nn1Cc1noc(C(=O)N(C)C)n1 [Compound I-1-286]	100%	100%	100%	–	–	–
1.2	–	–	Cc1cc(C)nc(Cn2nc(NC(=O)c3cccnc3)cc2C)n1 [Compound I-1-36]	100%	100%	90%	–	–	–
